# From patent US6153616A, “Triazoles as therapeutic agents for fungal infections” (Synphar Laboratories, Inc., priority 1998, dated 2000)
# Read-outs that look alike come from different tables or passages of the source.
# How the values were obtained:
# [1] = tested on: Candida albicans; assay: In vitro antifungal activity (minimum inhibitory concentration), Candida albicans; type: cell-based; details: 48 h at 37° C.
# Protocol: (§1) The compounds of the present invention were evaluated in vitro for their antifungal activity and were assessed based on minimum inhibitory concentration of the test compound, i.e. the concentration of the test compound at which growth of particular organism fails to occur. […] The microorganisms used in this test include Candida albicans, C. tropicalis, C. kefyr, C. krusei, C. guilliermondii, C. glabrata, Cryptococcus neoformans, Aspergillus niger and A. fumigatus.
# [2] = tested on: C. tropicalis; assay: In vitro antifungal activity (minimum inhibitory concentration), C. tropicalis; type: cell-based; details: Candida tropicalis, 48 h at 37° C.
# Protocol: as §1
# [3] = tested on: C. kefyr; assay: In vitro antifungal activity (minimum inhibitory concentration), C. kefyr; type: cell-based; details: Kluyveromyces marxianus, 48 h at 37° C.
# Protocol: as §1
# [4] = tested on: C. krusei; assay: In vitro antifungal activity (minimum inhibitory concentration), C. krusei; type: cell-based; details: Pichia kudriavzevii, 48 h at 37° C.
# Protocol: as §1
# [5] = tested on: C. guilliermondii; assay: In vitro antifungal activity (minimum inhibitory concentration), C. guilliermondii; type: cell-based; details: Meyerozyma guilliermondii, 48 h at 37° C.
# Protocol: as §1
# [6] = tested on: C. glabrata; assay: In vitro antifungal activity (minimum inhibitory concentration), C. glabrata; type: cell-based; details: Nakaseomyces glabratus, 48 h at 37° C.
# Protocol: as §1
# [7] = tested on: Cryptococcus neoformans; assay: In vitro antifungal activity (minimum inhibitory concentration), Cryptococcus neoformans; type: cell-based; details: 48 h at 37° C.
# Protocol: as §1
# [8] = tested on: Saccheromyces cerevisiae; assay: In vitro antifungal activity (minimum inhibitory concentration), Saccheromyces cerevisiae; type: cell-based
# [9] = tested on: A. niger; assay: In vitro antifungal activity (minimum inhibitory concentration), A. niger; type: cell-based; details: Aspergillus niger, 48 h at 37° C.
# Protocol: as §1
# [10] = tested on: Aspergillus fumigatus; assay: In vitro antifungal activity (minimum inhibitory concentration), Aspergillus fumigatus; type: cell-based; details: 48 h at 37° C.
# Protocol: as §1
# [11] = tested on: C. albicans; assay: In vivo therapeutic efficacy, C. albicans systemic infection in mice; details: Candida albicans, oral, i.v. and s.c. routes, survival vs control, read-out: Therapeutic efficacy (ED50) in mice systemic infections
# Protocol: (§2) Certain selected compounds were evaluated in-vivo for their antifungal efficacy. Series of doses of test compounds were administered by oral, i.v and s.c. routes to infected mice, i.e mice that are inoculated with a strain of Candida albicans or Aspergillus fumigatus. Efficacy of test compound was determined based on survival of treated mice compared to control. The in vivo efficacy was assessed based on ED50 of the test compound. The following table provides ED50 of certain compounds for systemic infections of C. albicans and A. fumigatus in mice models.
# [12] = tested on: A. fumigatus; assay: In vivo therapeutic efficacy, A. fumigatus systemic infection in mice; details: Aspergillus fumigatus, oral, i.v. and s.c. routes, survival vs control, read-out: Therapeutic efficacy (ED50) in mice systemic infections
# Protocol: as §2
# [13] = tested on: filamentous fungi; details: background; cited from earlier work
# [14] = background; cited from earlier work
# [15] = background; cited from earlier work; remark: listed apart in the source
# [16] = Saccheromyces cerevisiae, 48 h at 37° C., read-out: MIC
Compound,MIC [1] [µg/mL],MIC [2] [µg/mL],MIC [3] [µg/mL],MIC [4] [µg/mL],MIC [5] [µg/mL],MIC [6] [µg/mL],MIC [7] [µg/mL],"MIC [8, 16] [µg/mL]",MIC [9] [µg/mL],MIC [10] [µg/mL],ED50 [11] [mg/kg],ED50 [12] [mg/kg],MIC ([8]; 48 h) [µg/mL],activity against filamentous fungi [13],bioavailability [14],protein binding [15]
CCC(CC)n1ncn(-c2ccc(N3CCN([C@H](C)[C@](O)(Cn4cncn4)c4ccc(F)cc4F)CC3)cc2)c1=O [Example 36],0.09,0.09,0.048,0.09,0.048,0.09,0.048,0.19,0.78,0.39,8.01,> 45,–,–,–,–
"CCC(C)n1ncn(-c2ccc(N3CCN([C@H](C)[C@](O)(Cn4cncn4)c4ccc(F)cc4F)CC3)cc2)c1=O (stereo partly drawn) [Example 40, (2R,3R)-3-[4-{4-[2-(2-Butyl)-2H-1,2,4-triazol-3-one-4-yl]phenyl}piperazin-1-yl]2-(2,4-difluorophenyl)-1-(1H-1,2,4-triazol-1-yl)butan-2-ol]",0.09,0.048,0.048,0.19,0.048,0.39,0.48,0.09,0.78,0.39,4.68,67,–,–,–,–
"CC(C)n1ncn(-c2ccc(N3CCN([C@H](C)[C@](O)(Cn4cncn4)c4ccc(F)cc4F)CC3)cc2)c1=O [Example 41, (2R,3R)-2-(2,4-Difluorophenyl)-3-[4-{4-[2-(2-propyl)-2H-1,2,4-triazol-3-one-4-yl]phenyl}piperazin-1-yl]-1-(1H-1,2,4-triazol-1-yl)butan-2-ol]",0.09,0.09,0.48,1.56,0.048,0.78,0.48,0.19,3.12,0.78,8.01,89.3,–,–,–,–
"CC(O)Cn1ncn(-c2ccc(N3CCN([C@H](C)[C@](O)(Cn4cncn4)c4ccc(F)cc4F)CC3)cc2)c1=O (stereo partly drawn) [Example 42, (2R,3R)-2-(2,4-Difluorophenyl)-3-[4-{4-[2-(2-hydroxypropyl)-2H-1,2,4-triazol-3-one-4-yl]phenyl}piperazin-1-yl]-1-(1H-1,2,4-triazol-1-yl)butan-2-ol]",0.09,0.09,0.048,1.56,0.09,12.5,0.19,0.39,3.12,0.39,> 90,71.1,–,–,–,–
C[C@@H](N1CCN(c2ccc(-n3cnn(Cc4ccc(C(F)(F)F)cc4)c3=O)cc2)CC1)[C@](O)(Cn1cncn1)c1ccc(F)cc1F [Example 43],0.048,0.048,0.048,0.09,0.09,0.78,0.048,0.09,0.19,0.19,1.57,42.3,–,–,–,–
C[C@@H](N1CCN(c2ccc(-n3cnn(CC(F)(F)C(F)F)c3=O)cc2)CC1)[C@](O)(Cn1cncn1)c1ccc(F)cc1F [Example 44],0.048,0.048,0.048,0.09,0.048,1.56,0.048,0.048,0.19,0.048,–,–,–,–,–,–
C[C@@H](N1CCN(c2ccc(-n3cnn(Cc4ccc(F)cc4F)c3=O)cc2)CC1)[C@](O)(Cn1cncn1)c1ccc(F)cc1F [Example 46],0.048,0.048,0.048,0.19,0.048,0.39,0.048,0.09,0.09,0.048,56,> 45,–,–,–,–
"OC(Cn1cncn1)(Cn1cncn1)c1ccc(F)cc1F [Fluconazole, reference compound]",0.78,0.39,0.39,50,1.56,12.5,1.56,–,> 100,> 100,–,–,6.25,not active against filamentous fungi,–,–
"CCC(C)n1ncn(-c2ccc(N3CCN(c4ccc(OCC5COC(Cn6cncn6)(c6ccc(Cl)cc6Cl)O5)cc4)CC3)cc2)c1=O (stereo not shown) [Itraconazole, reference compound]",0.09,0.09,0.09,0.39,0.19,0.19,0.39,0.39,0.39,0.19,–,–,–,active against filamentous fungi,less bioavailability,high protein binding
